# Measured values: patent US20230119479A1, “A HISTONE DEACETYLASE INHIBITOR HAVING A NITROGEN-CONTAINING AROMATIC HETEROCYCLYL GROUP” (SHIONOGI & CO., LTD., priority 2019, published 2023)
# Legend:
# [1] = biological target: T1, HDAC2 Human recombinant C-terminal FLAG-tag (Homo sapiens, UniProt Q92769); assay: Measurement of HDAC2 enzyme inhibitory activity (HTRF); assay type: biochemical; settings: recombinant HDAC2, H3K9ac peptide, 3 hours room temperature; read-out: HDAC2 IC50
# T1 construct: FLAG (C); purchased BPS Bioscience 50052
# Procedure, shortened: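 Compounds were tested at 8 points in 3-fold dilutions from 99 μM final (n=2) against FLAG-tagged HDAC2 with biotinylated H3K9ac (1-21) peptide (0.6 μM as added). The reaction ran 3 h at room temperature in Tris pH 8.0 buffer, then was stopped with SAHA. Deacetylated product was detected by HTRF (Eu-anti-H3K9me0 antibody, streptavidin-XL665) as the 665/615-620 nm ratio.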
# [2] = Platelet toxicity test using human blood progenitor cells (WST); assay type: cell-based; settings: human bone marrow CD34+ progenitor cells, maximum concentration 25 μM
# Experimental: Test Example 2: Platelet Toxicity Test Using Human Blood Progenitor Cells
# Human bone marrow CD34+ progenitor cells (Lonza, 2M-101B) stored at −80° C. were thawed, spun down at 150 g for 10 minutes at 20° C., and a medium (StemSpan Expansion Supplement, STEM CELL TECHNOLOGIES, ST-02696) to which cytokines (StemSpan SFEM II, STEM CELL TECHNOLOGIES, ST-09655) was added was added to adjust to 2×10^4/well, the mixture was seeded in 12well non-coat dish (Corning, 3513), was incubated for 10 days at 37° C., 5% CO2. After 10 days, the cells were collected and spun down at 150 g for 10 minutes at 20° C., and a medium (StemSpan Expansion Supplement) containing cytokines (StemSpan SFEM II) was added so that the number of cells became 2×10^5 cells/ml. 50 μl of the cell suspension was seeded to each well of a 96-well plate (Corning, 3596) and allowed to stand overnight in an incubator at 37° C., 5% CO2. The next day, 50 μl of the test compound was treated to each well and allowed to stand for 48 hours in the incubator at 37° C., 5% CO2 (n=2). At this time, the test compound dissolved in 100% DMSO was serially diluted with DMSO at a 3-fold ratio, and then a medium containing cytokine was added to adjust the final concentration to 25, 8.33, 2.78, 0.93, 0.31, 0.1 μM. After that, 10 μl of WST (Cell count reagent SF, Nacalai Tesque Inc., 07553-44) was added to each well, and the mixture was allowed to stand in the incubator for 4 hours at 37° C., 5% CO2, and then the multi-label reader 2030 ARVO X4 (PerkinElmer) was used to measure the absorbance. At this time, the absorbance at 450 nm and the absorbance at 620 nm were obtained, and the difference between 450 nm and 620 nm was used as the measured value. The measured values were analyzed by Excel and TIBCO Spotfire, and IC50 values were calculated. At this time, for control (−), the well without cells was set as n=6 for one row, and the average value was calculated, and for control (+), the well in which DMSO was added to the cells so as to have the same concentration as the compound treatment group was set as n=6 for one row, and the average value was calculated and corrected for each plate. For the test compound, the average value of n=2 was used.
# [3] = test system: HDACs other than HDAC2 (HDAC2 knockout K562 cells); assay: Evaluation of HDAC2 selectivity: H3K9 histone acetylation in HDAC2 knockout K562 cells (AlphaLISA); assay type: cell-based; settings: Homo sapiens, maximum concentration 83.3 μM, 100% = SAHA-treated group, read-out: maximum inhibition rate (H3K9 histone acetylation);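 further: 0% inhibition equals DMSO-treated group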
# Experimental: Test Example 3: Evaluation of HDAC2 Selectivity
# K562 cells were cultured in RPMI1640 medium (SIGMA, R8758) containing 10% FBS (Hyclone, SH30070.03) and 1% penicillin streptomycin (Nacalai Tesque, 26252-94). CompoZr (registered trademark) Zinc Finger Nuclease (Merck) targeting HDAC2 sequences was transfected into K562 cells by electroporation using Nucleofector (Lonza). The cells after transfection were subjected to limiting dilution, and DNA sequencing was performed on the cell clones in which mutations were detected by the PCR method. Cell clones lacking a base number that was not a multiple of 3 in both alleles were identified, and a single-cell cloning was performed on the cell clones to produce HDAC2 knockout K562 cells. It was confirmed that the expression of HDAC2 was not detected by Western blotting in the prepared cells.
# By evaluating the H3K9 histone acetylation-enhancing activity of the test compound using HDAC2 knockout K562 cells, the inhibitory activity against HDACs other than HDAC2 was evaluated.
# HDAC2 knockout K562 cells stored in liquid nitrogen were thawed and cultured in RPMI1640 medium (Nacalai Tesque, 30264-85) for 2 to 4 days. Using Echo555 (Beckman Coulter), the test compound was dispensed to the assay plate (Corning, 4513) at 37.5 nL/well, and then HDAC2 knockout K562 cells were seeded to 125 cells/4.5 μL/well, and stirred. At this time, the test compound was treated at 8 points (n=2) in the 3-fold dilution series from the maximum concentration of 83.3 μM. After culturing at 37° C. and 5% CO2 overnight, 1.5 μL/well of Lysis buffer (PerkinElmer, AL009F1) was added, and after incubating at room temperature for 15 minutes, 3 μL/well of Extraction buffer (PerkinElmer, AL009F2) was added and the mixture was incubated for 10 minutes at room temperature. Then, 5× antibody solution (prepared by diluting anti-H3K9 Acceptor beads (PerkinElmer, AL114M) 75-fold with a detection buffer prepared by diluting 10×Cell-Histone Detection buffer (PerkinElmer, AL009F3) 10-fold with ultrapure water, and diluting Biotinylated anti H3 antibody (PerkinElmer, AL118M) diluted 150 times with the detection buffer) was added at 3 μL/well, and after incubating at room temperature for 60 minutes, then 5× donor beads solution (prepared by diluting Streptavidin Donor beads (PerkinElmer, 6760002) 75 fold with the detection buffer) was added at 3 μL/well, and the mixture was incubated again at room temperature for 60 minutes, and then the emission value was measured using PHERAstar (BMG LABTECH) (excitation=680 nm, […]). […] For cell toxicity, cell viability rate was evaluated by the PrestoBlue method.
# T1 sequence (Q92769 whole entry): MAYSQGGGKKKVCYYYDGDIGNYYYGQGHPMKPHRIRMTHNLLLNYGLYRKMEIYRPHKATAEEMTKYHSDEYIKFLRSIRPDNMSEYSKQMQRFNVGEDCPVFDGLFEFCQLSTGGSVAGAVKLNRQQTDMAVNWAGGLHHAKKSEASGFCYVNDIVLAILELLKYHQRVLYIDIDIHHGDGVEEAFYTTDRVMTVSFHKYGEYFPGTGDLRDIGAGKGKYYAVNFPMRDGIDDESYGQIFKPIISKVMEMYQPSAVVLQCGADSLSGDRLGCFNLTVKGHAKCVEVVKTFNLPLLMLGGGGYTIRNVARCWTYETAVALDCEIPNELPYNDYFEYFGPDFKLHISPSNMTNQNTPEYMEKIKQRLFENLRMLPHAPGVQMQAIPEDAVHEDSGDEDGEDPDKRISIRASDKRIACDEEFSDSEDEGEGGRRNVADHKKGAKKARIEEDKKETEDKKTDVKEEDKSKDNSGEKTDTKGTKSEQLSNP
SMILES,IC50 [1],IC50 at 48 h [2],inhibition at up to 83.3 µM [3]
Nc1ccc(-c2ccc(F)nc2)cc1NC(=O)c1cnc(OC(F)F)cn1 [Compound I-132],0.43 µM,> 25 µM,6%
Nc1ccc(-n2cccc2)nc1NC(=O)c1ccc(C2CC2)cn1 [Compound I-160],–,> 25 µM,6%
Nc1ccc(-c2ccc(F)nc2)cc1NC(=O)c1ccc(N2CCOCC2)cn1 [Compound I-093],0.13 µM,> 25 µM,–
Nc1ccc(-c2ccc(F)nc2)cc1NC(=O)c1ccc(C(F)F)cn1 [Compound I-144],0.23 µM,> 25 µM,7%
CCOCCOc1cnc(C(=O)Nc2cc(-c3ccc(F)nc3)ccc2N)cn1 [Compound I-126],0.14 µM,> 25 µM,5%
Cn1cc(-c2cc(C(=O)Nc3cc(-c4ccc(F)nc4)ccc3N)no2)cn1 [Compound I-198],0.24 µM,> 25 µM,5%
Cn1cc(-c2ccc(N)c(NC(=O)c3ccc(C4CC4)cn3)c2)cn1 [Compound I-112],0.2 µM,> 25 µM,–
CC(=O)Nc1ccc(C(=O)Nc2cc(-c3ccc(F)nc3)ccc2N)nc1 [Compound I-280],0.05 µM,–,8%
Nc1ccc(-c2ccc(F)nc2)cc1NC(=O)c1ccc(OCF)cn1 [Compound I-142],0.18 µM,> 25 µM,8%
Nc1ccc(-c2ccc(F)nc2)cc1NC(=O)c1cnc(OCF)cn1 [Compound I-121],0.24 µM,> 25 µM,–
Nc1ccc(-c2ccc(F)nc2)cc1NC(=O)c1cnc(OCC2CC2)cn1 [Compound I-122],0.25 µM,> 25 µM,3%
Cn1cc(-c2ccc(N)c(NC(=O)c3cc4ccccc4cn3)c2)cn1 [Compound I-141],0.23 µM,> 25 µM,6%
CCOc1cnc(C(=O)Nc2cc(-c3cnn(C)c3)ccc2N)cn1 [Compound I-139],0.18 µM,> 25 µM,–
Nc1ccc(-c2ccccc2)nc1NC(=O)c1cnc(C2CC2)cn1 [Compound I-158],–,> 25 µM,7%
Cn1cc(-c2ccc(C(=O)Nc3nc(-c4cccs4)ccc3N)nn2)cn1 [Compound I-028],0.23 µM,> 25 µM,8%
COc1ccc(C(=O)Nc2cc(-c3cnn(C)c3)ccc2N)nn1 [Compound I-254],0.34 µM,–,3%
Cn1cc(-c2ccc(N)c(NC(=O)c3cnc(-c4cnn(C)c4)cn3)c2)cn1 [Compound I-036],0.16 µM,> 25 µM,8%
Nc1ccc(-c2ccc(F)nc2)cc1NC(=O)c1cnc(C2CC2)cn1 [Compound I-129],0.094 µM,> 25 µM,–
Nc1ccc(-n2cccc2)nc1NC(=O)c1cnc(C2CC2)cn1 [Compound I-161],0.35 µM,> 25 µM,9%
COc1ccc(C(=O)Nc2cc(-c3ccc(F)nc3)ccc2N)nc1 [Compound I-124],0.16 µM,> 25 µM,9%
CCc1cnc(C(=O)Nc2cc(-c3cnn(C)c3)ccc2N)cn1 [Compound I-250],0.17 µM,–,5%
COCCOc1ccc(C(=O)Nc2cc(-c3ccc(F)nc3)ccc2N)nc1 [Compound I-127],0.11 µM,> 25 µM,7%
Nc1ccc(-c2ccc(F)nc2)nc1NC(=O)c1cnc(C2CC2)cn1 [Compound I-157],–,> 25 µM,7%
CC(C)(C)c1cnc(C(=O)Nc2cc(-c3ccc(F)nc3)ccc2N)cn1 [Compound I-203],0.24 µM,–,–
